Results taken from patent US20250074906A1, “AZAINDOLE DERIVATIVE THAT INHIBITS H-PGDS” (SATO PHARMACEUTICAL CO., LTD., priority 2021, published 2025).

Target: T1, Recombinant human H-PGDS (Homo sapiens, UniProt O60760)
T1 construct: made in house; host or cells: E. coli
Test: H-PGDS inhibitory activity (prostaglandin D2 production measured by LC-MS/MS)
Assay type: biochemical
Conditions: recombinant human H-PGDS 1.0 nM expressed in E. coli; prostaglandin H2 25 μM; 15 min preincubation and 1 min reaction on ice
Protocol: The H-PGDS inhibitory activity of each Example compound was measured according to the method described in WO 2007/041634.
Recombinant human H-PGDS (final concentration: 1.0 nM) expressed in E. coli was mixed in an assay buffer containing 20 mM Tris-HCl (pH 8.0), 2 mM magnesium chloride, 2 mM reduced glutathione, and 0.5 mg/mL γ-globulin, and 150 μL of the mixture was dispensed into an 8-strip PCR tube (BM Equipment Co., Ltd). Test compounds (Example compounds) (16.5 μL) at various concentrations dissolved in DMSO were added and the mixture was preincubated for 15 minutes on ice.
Prostaglandin H2 (final concentration: 25 μM) (Cayman Chemical) was dispensed into another 8-strip PCR tube, and the solvent was dried and solidified using a vacuum concentrator (Thermo Fisher Scientific). To the dried and solidified prostaglandin H2 was added 50 μL of the assay buffer containing H-PGDS and each test compound after the preincubation, and the mixture was reacted on ice for 1 minute. 40 μL of this mixture was added to 40 μL of a stop solution (50 mM aqueous citric acid solution containing iron chloride at a final concentration of 4 mg/mL) to stop the reaction. Then, the reaction solution was deproteinized, added to a 96 square deep well plate (SHONANMARUHACHI STEC Co., Ltd.), and the prostaglandin D2 concentration in the reaction solution was measured by LC-MS/MS. ACQUITY (registered trademark) TQD (Waters) was used as a measuring instrument.
Prostaglandin D2 production activity (%) in the group with each test compound when a value obtained by subtracting the amount of production of prostaglandin D2 in the group without enzyme, which is non-specific production of prostaglandin D2, from the amount of production of prostaglandin D2 in the group without test compound (DMSO-addition group) in each 8-strip PCR tube is 100% was calculated. From the calculated activity value, the test compound concentration that inhibits prostaglandin D2 production by 50% (IC50) was determined.

T1 sequence (O60760 whole entry): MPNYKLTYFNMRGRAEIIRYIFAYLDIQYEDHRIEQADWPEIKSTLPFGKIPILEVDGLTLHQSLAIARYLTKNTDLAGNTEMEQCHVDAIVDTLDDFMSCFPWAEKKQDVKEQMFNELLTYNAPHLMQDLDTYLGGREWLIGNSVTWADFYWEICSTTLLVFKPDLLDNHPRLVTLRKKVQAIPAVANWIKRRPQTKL

IC50 [nM]	Compound
0.79	O=C(N[C@H]1CC[C@@H](O)CC1)c1ccc(-c2ncc(F)c3[nH]ccc23)cc1 [Example 23, 4-(7-fluoro-1H-pyrrolo[3,2-c]pyridin-4-yl)-N-(cis-4-hydroxycyclohexyl)benzamide]
1	C[C@]1(O)CC[C@@H](NC(=O)c2ccc(-c3ncc(Cl)c4[nH]ccc34)cc2)CC1 [Example 31, 4-(7-chloro-1H-pyrrolo[3,2-c]pyridin-4-yl)-N-(cis-4-hydroxy-4-methylcyclohexyl)benzamide]
1.7	O=C(NC1CCOCC1)c1ccc(-c2ncc(Cl)c3[nH]ccc23)cc1 [Example 28, 4-(7-chloro-1H-pyrrolo[3,2-c]pyridin-4-yl)-N-(tetrahydropyran-4-yl)benzamide]
0.65	O=C(N[C@H]1CC[C@H](O)CC1)c1ccc(-c2ncc(F)c3[nH]ccc23)c(F)c1 [Example 39, 3-fluoro-4-(7-fluoro-1H-pyrrolo[3,2-c]pyridin-4-yl)-N-(trans-4-hydroxycyclohexyl)benzamide]
0.86	O=C(NC1CCOCC1)c1ccc(-c2ncc(F)c3[nH]ccc23)cc1 [Example 24, 4-(7-fluoro-1H-pyrrolo[3,2-c]pyridin-4-yl)-N-(tetrahydropyran-4-yl)benzamide]
3.4	CC(C)(O)[C@H]1CC[C@H](NC(=O)c2ccc(-c3ncc(C#N)c4[nH]ccc34)cc2)CC1 [Example 15, 4-(7-cyano-1H-pyrrolo[3,2-c]pyridin-4-yl)-N-[trans-4-(2-hydroxypropan-2-yl)cyclohexyl]benzamide]
1.7	C[C@]1(O)CC[C@H](NC(=O)c2ccc(-c3ncc(F)c4[nH]ccc34)cc2)CC1 [Example 21, 4-(7-fluoro-1H-pyrrolo[3,2-c]pyridin-4-yl)-N-(trans-4-hydroxy-4-methylcyclohexyl)benzamide]
2.3	NC(=O)[C@H]1CC[C@H](NC(=O)c2ccc(-c3ncc(F)c4[nH]ccc34)cc2)CC1 [Example 27, N-(trans-4-carbamoylcyclohexyl)-4-(7-fluoro-1H-pyrrolo[3,2-c]pyridin-4-yl)benzamide]
0.86	C[C@]1(O)CC[C@H](NC(=O)c2ccc(-c3ncc(Cl)c4[nH]ccc34)cc2)CC1 [Example 34, 4-(7-chloro-1H-pyrrolo[3,2-c]pyridin-4-yl)-N-(trans-4-hydroxy-4-methylcyclohexyl)benzamide]
0.85	O=C(NC1CCS(=O)(=O)CC1)c1ccc(-c2ncc(Cl)c3[nH]ccc23)cc1 [Example 29, 4-(7-chloro-1H-pyrrolo[3,2-c]pyridin-4-yl)-N-(1,1-dioxotetrahydrothiopyran-4-yl)benzamide]
0.68	O=C(N[C@H]1CC[C@H](O)CC1)c1ccc(-c2ncc(Cl)c3[nH]ccc23)cc1 [Example 30, 4-(7-chloro-1H-pyrrolo[3,2-c]pyridin-4-yl)-N-(trans-4-hydroxycyclohexyl)benzamide]
0.7	O=C(NC1CCS(=O)(=O)CC1)c1ccc(-c2ncc(F)c3[nH]ccc23)cc1 [Example 25, N-(1,1-dioxotetrahydrothiopyran-4-yl)-4-(7-fluoro-1H-pyrrolo[3,2-c]pyridin-4-yl)benzamide]
0.94	O=C(N[C@H]1CC[C@H](O)CC1)c1ccc(-c2ncc(F)c3[nH]ccc23)cc1 [Example 20, 4-(7-fluoro-1H-pyrrolo[3,2-c]pyridin-4-yl)-N-(trans-4-hydroxycyclohexyl)benzamide]
1.2	CC(C)(O)[C@H]1CC[C@H](NC(=O)c2ccc(-c3ncc(Cl)c4[nH]ccc34)cc2)CC1 [Example 14, 4-(7-chloro-1H-pyrrolo[3,2-c]pyridin-4-yl)-N-[trans-4-(2-hydroxypropan-2-yl)cyclohexyl]benzamide]
1.3	N#C[C@H]1CC[C@H](NC(=O)c2ccc(-c3ncc(F)c4[nH]ccc34)cc2)CC1 [Example 26, N-(trans-4-cyanocyclohexyl)-4-(7-fluoro-1H-pyrrolo[3,2-c]pyridin-4-yl)benzamide]
1.9	Cc1cnc(-c2ccc(C(=O)N[C@H]3CC[C@H](C4(O)CC4)CC3)cc2)c2cc[nH]c12 [Example 3, N-[trans-4-(1-hydroxycyclopropyl)cyclohexyl]-4-(7-methyl-1H-pyrrolo[3,2-c]pyridin-4-yl)benzamide]
0.77	O=C(N[C@H]1CC[C@@H](O)CC1)c1ccc(-c2ncc(Cl)c3[nH]ccc23)cc1 [Example 33, 4-(7-chloro-1H-pyrrolo[3,2-c]pyridin-4-yl)-N-(cis-4-hydroxycyclohexyl)benzamide]
1.4	CC(C)(O)[C@H]1CC[C@H](NC(=O)c2ccc(-c3ncc(F)c4[nH]ccc34)cc2)CC1 [Example 13, 4-(7-fluoro-1H-pyrrolo[3,2-c]pyridin-4-yl)-N-[trans-4-(2-hydroxypropan-2-yl)cyclohexyl]benzamide]
1.5	Cc1cnc(-c2ccc(C(=O)N[C@H]3CC[C@H](OCC(C)(C)O)CC3)cc2)c2cc[nH]c12 [Example 4, N-[trans-4-(2-hydroxy-2-methylpropoxy)cyclohexyl]-4-(7-methyl-1H-pyrrolo[3,2-c]pyridin-4-yl)benzamide]
2.8	CC(C)(O)[C@H]1CC[C@H](NC(=O)c2ccc(-c3ncc(C(F)F)c4[nH]ccc34)cc2)CC1 [Example 18, 4-[7-(difluoromethyl)-1H-pyrrolo[3,2-c]pyridin-4-yl]-N-[trans-4-(2-hydroxypropan-2-yl)cyclohexyl]benzamide]

The next lines start with the molecule.

Compound	IC50 [nM]
C[C@]1(O)CC[C@H](NC(=O)c2ccc(-c3ncc(F)c4[nH]ccc34)c(F)c2)CC1 [Example 37, 3-fluoro-4-(7-fluoro-1H-pyrrolo[3,2-c]pyridin-4-yl)-N-(trans-4-hydroxy-4-methylcyclohexyl)benzamide]	0.95
Cc1cnc(-c2ccc(C(=O)NC34CCC(O)(CC3)CC4)cc2)c2cc[nH]c12 [Example 1, N-(4-hydroxybicyclo[2.2.2]octan-1-yl)-4-(7-methyl-1H-pyrrolo[3,2-c]pyridin-4-yl)benzamide]	0.99
O=C(NC12CCC(O)(CC1)CC2)c1ccc(-c2ncc(F)c3[nH]ncc23)cc1 [Example 47, 4-(7-fluoro-1H-pyrazolo[4,3-c]pyridin-4-yl)-N-(4-hydroxybicyclo[2.2.2]octan-1-yl)benzamide]	14
O=C(N[C@H]1CC[C@H](C2(O)CC2)CC1)c1ccc(-c2nccc3[nH]ccc23)c(F)c1 [Example 11, 3-fluoro-N-[trans-4-(1-hydroxycyclopropyl)cyclohexyl]-4-(1H-pyrrolo[3,2-c]pyridin-4-yl)benzamide]	3.9
O=C(NC1CCOCC1)c1ccc(-c2ncc(F)c3[nH]ccc23)c(F)c1 [Example 38, 3-fluoro-4-(7-fluoro-1H-pyrrolo[3,2-c]pyridin-4-yl)-N-(tetrahydropyran-4-yl)benzamide]	0.85
O=C(NC12CCC(O)(CC1)C2)c1ccc(-c2ncc(F)c3[nH]ccc23)cc1 [Example 19, 4-(7-fluoro-1H-pyrrolo[3,2-c]pyridin-4-yl)-N-(4-hydroxybicyclo[2.2.1]heptan-1-yl)benzamide]	1.4
O=C(N[C@H]1CC[C@H](O)CC1)c1ccc(-c2nccc3[nH]ccc23)c(F)c1 [Example 12, 3-fluoro-N-(trans-4-hydroxycyclohexyl)-4-(1H-pyrrolo[3,2-c]pyridin-4-yl)benzamide]	0.88
CC(C)(O)[C@H]1CC[C@H](NC(=O)c2ccc(-c3nccc4[nH]ncc34)c(F)c2)CC1 [Example 49, 3-fluoro-N-[trans-4-(2-hydroxypropan-2-yl)cyclohexyl]-4-(1H-pyrazolo[4,3-c]pyridin-4-yl)benzamide]	0.78
CC(C)(O)CO[C@H]1CC[C@H](NC(=O)c2ccc(-c3nccc4[nH]ccc34)c(F)c2)CC1 [Example 9, 3-fluoro-N-[trans-4-(2-hydroxy-2-methylpropoxy)cyclohexyl]-4-(1H-pyrrolo[3,2-c]pyridin-4-yl)benzamide]	1.2
C[C@]1(O)CC[C@@H](NC(=O)c2ccc(-c3ncc(F)c4[nH]ccc34)c(F)c2)CC1 [Example 40, 3-fluoro-4-(7-fluoro-1H-pyrrolo[3,2-c]pyridin-4-yl)-N-(cis-4-hydroxy-4-methylcyclohexyl)benzamide]	1.1
CC(C)(O)[C@H]1CC[C@H](NC(=O)c2ccc(-c3ncc(F)c4[nH]ccc34)c(F)c2)CC1 [Example 35, 3-fluoro-4-(7-fluoro-1H-pyrrolo[3,2-c]pyridin-4-yl)-N-[trans-4-(2-hydroxypropan-2-yl)cyclohexyl]benzamide]	1.2
NC(=O)C12CCC(NC(=O)c3ccc(-c4nccc5[nH]ccc45)c(F)c3)(CC1)CC2 [Example 8, 4-[3-fluoro-4-(1H-pyrrolo[3,2-c]pyridin-4-yl)benzamide]bicyclo[2.2.2]octane-1-carboxamide]	0.75
O=C(NC12CCC(O)(CC1)C2)c1ccc(-c2ncc(F)c3[nH]ccc23)c(F)c1 [Example 41, 3-fluoro-4-(7-fluoro-1H-pyrrolo[3,2-c]pyridin-4-yl)-N-(4-hydroxybicyclo[2.2.1]heptan-1-yl)benzamide]	0.89
